Laboratory results reported in patent US11584712B2, “Alkylamine-substituted perthiocarbamates as dual precursors to hydropersulfide and carbonyl sulfide” (The Johns Hopkins University, priority 2020, dated 2023).
“Also recorded” adds a separate entry of the source.

Columns and labels:
[1] = tested on: H9c2 cells; assay: H9c2 cell protection from H2O2-mediated oxidative stress, SYTOX Green nucleic acid stain; type: cell-based, rat; conditions: 2 h pretreatment (150 μM for 8), then H2O2 200 μM
Procedure: Cells were seeded at a density of 1×10^4 cells/well. After 24 h, precursor 7b or byproduct 2b is added in 20 μL volumes using DMSO: H2O (<0.01% DMSO). Cells were incubated for 2 h before media was removed and the cells gently washed with PBS (pH 7.4). Then, 180 μL of fresh media and 20 μL H2O2 diluted in H2O were added before cells were incubated for an additional 1 h. After removing this media, 100 μL of media containing 3 μM SYTOX™ Green nucleic acid stain was added, and the cells incubated for 2 h before fluorescence readings were obtained at 485Ex/538Em (Step 1). Finally, an additional 100 μL of media containing 3 μM SYTOX™ and 0.2% Triton X-100 was added in order to permeabilize all cells and incubated for 1 h before fluorescence values measured (Step 2). The relative % cells surviving was calculated as a 100% minus the ratio of the fluorescence value of Step 1 over Step 2 (% cells surviving=100%−(FL538 (Step 1)/FL538 (Step 2)). Fluorescence values for vehicle-treated, non-H2O2-exposed wells were treated as background cell death and this value is added to the % cell survival for each subsequent group.
See Hofgaard et al., 2006, for general procedures. […] After removing this media, 100 μL of media containing 3 μM SYTOX® Green nucleic acid stain was added, and the cells incubated for 2 h before fluorescence readings were obtained at 485Ex/538Em (Step 1). […]

[2] = Stability and intermolecular reactivity of control compound 8 by UPLC-MS; type: physicochemical; conditions: 100 μM, 37° C.
Procedure: FIG. 11 is an UPLC-MS chromatogram of 8 (100 μM) incubated in pH 7.4 ammonium bicarbonate buffer at 37° C. Aliquots taken at various times were quenched with 1% formic acid and analyzed by UPLC-MS.
Aliquots (200 μL) were taken at specified time points, quenched with 1% formic acid (200 μL) and analyzed using UPLC-MS.
FIG. 13 is UPLC-MS chromatograms of control compound 8 (100 μM) reaction with NAC (500 μM) in pH 7.4 ammonium bicarbonate (50 mM) with the metal chelator DTPA (100 μM) at 37° C. Aliquots (200 μL) were taken at specified time points, quenched with 1% formic acid (200 μL) and analyzed using UPLC-MS;

[3] = COS release using membrane inlet mass spectrometry (MIMS); type: physicochemical; conditions: precursor 50 μM, NAC 0.25 mM (5 equiv.), pH 7.4 phosphate buffer saline with DTPA, 37° C.
Procedure: (§1) COS was analyzed using a Hiden HPR-40 MIMS system with a sample cell and membrane probe that have been optimized to detect gases dissolved in aqueous solution as described previously. Cline et al., 2011. A stock solution of N-acetyl-cysteine (25 mM) was prepared in DI water. RSSH precursor stock solutions (5 mM) were prepared in DMSO. These solutions were degassed by purging with nitrogen for 10 min before COS release analysis. Typically, 20 mL phosphate buffer solution (10 mM) was added to the sample cell, degassed and purged with a continuous flow of argon for 15 min. N-acetyl cysteine (200 μL, 25 mM) and RSSH precursor (200 μL, 5 mM) were then injected using a gas tight syringe and ion current at m/z 60 (COS^+) were collected for 2 h (source pressure was approximately 1×10^−7 to 5×10^−7 Torr).
as §1, with “(COS*)” for “(COS^+)”

With `CCCN(C)C(=O)SSC(C)(C)C(NC(C)=O)C(=O)OC` (centres unmarked) [control compound 8, Methyl 2-acetamido-3-methyl-3-((methyl(propyl)carbamoyl)disulfaneyl)butanoate] the “protection against H2O2-mediated toxicity (SYTOX)” value [1] was “protective effects against H2O2-mediated toxicity, but to a lesser extent compared with 7b”, the “RSSH release via intermolecular reaction with thiol” value ([2]; NAC 500 μM, pH 7.4 ammonium bicarbonate buffer) was “does not release RSSH via intermolecular reactions” and the “reaction with n-butylamine (RSSH release via intermolecular reaction)” value ([2]; n-BuNH2 500 μM (5 equiv.), pH 7.4 ammonium bicarbonate:acetonitrile (9:1), at least over 2 h) was “no reactivity; also recorded: lack of reaction”. For the same compound, the “stability / RSSH release at pH 7.4” value ([2]; pH 7.4 ammonium bicarbonate buffer) was “No RSSH release; also recorded: stable under these conditions and does not produce RSSH” and the “COS release (m/z=60 signal)” value [3] was “Relatively slow COS release”.
